Reference: patent US20240122180A1, “FUNGICIDAL HALOMETHYL KETONES AND HYDRATES AND THEIR MIXTURES” (FMC Corporation, priority 2020, published 2024)

Experiments:
[1] = tested on: Puccinia recondita f. sp. tritici (the causal agent of wheat leaf rust); test: Test B: preventive spray on wheat seedlings, disease rating (100 = 100% control; * 50 ppm, ** 10 ppm, *** 250 ppm); type: in vivo; conditions: 100 = 100% disease control
Method in brief: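 Preventive test: Puccinia recondita f. sp. tritici spores were inoculated one day after run-off spraying of wheat seedlings with test suspension (acetone/water 50/50, 250 ppm PEG400). After 24 h in saturated air and 6 days in a growth chamber, both at 20° C, control was scored 0–100 versus untreated plants.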

[2] = tested on: Phakopsora pachyrhizi (the causal agent of Asian soybean rust); test: Test A: preventive spray on soybean seedlings, visual disease rating (100 = 100% control; * 50 ppm, ** 10 ppm, *** 250 ppm); type: in vivo; conditions: 100 = 100% disease control
Method in brief: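 Preventive test: one day after spraying compound (acetone/water suspension, 250 ppm PEG400), seedlings received rust spore inoculum, 24 h in saturated air then 8 days in growth chamber, both at 22 °C. Disease control scored visually, 100 = complete, 0 = none, relative to untreated controls.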

[3] = 10 ppm test suspension, wheat seedlings
[4] = 10 ppm test suspension, soybean seedlings
[5] = 50 ppm test suspension, wheat seedlings
[6] = 50 ppm test suspension, soybean seedlings
[7] = 10 ppm test suspension, 0 = no control

| Structure (SMILES) | Test B disease control rating [1, 3] [%] | Test A disease control rating [2, 4] [%] | other results |
| --- | --- | --- | --- |
| CC(=O)COC(=O)c1cnn(Cc2ccc(OCC3(C(F)(F)F)OCCO3)cc2)c1 [compound 169] | 0 | 100 |  |
| N#CCOC(=O)c1cnn(Cc2ccc(OCC3(C(F)(F)F)OCCO3)cc2)c1 [compound 172] | 0 | 100 |  |
| FC(F)(F)c1nc(-c2ccc(OCC3(C(F)(F)F)OCCO3)cc2)no1 [compound 173] | 0 | 0 |  |
| NCc1ccc(OCC2(C(F)(F)F)OCCO2)cc1 [compound 174] | 0 | 0 |  |
| CC(C)C(=O)NCc1ccc(OCC2(C(F)(F)F)OCCO2)cc1 [compound 175] | 0 | 0 |  |
| O=C(NCc1ccc(OCC2(C(F)(F)F)OCCO2)cc1)C1CC1 [compound 176] | 0 | 0 |  |
| O=Cc1ccc(OCC(O)(O)C(F)(F)F)cc1 [compound 177] |  |  | Test B disease control rating [1, 5]: 89%; Test A disease control rating [2, 6]: 100% |
| OCc1ccc(OCC2(C(F)(F)F)OCCO2)cc1 [compound 178] | 0 | 0 |  |
| O=C(NCc1ccc(OCC2(C(F)(F)F)OCCO2)cc1)c1cccc(C(F)(F)F)c1 [compound 179] | 0 | 0 |  |
| CCO/C(=C\Oc1ccc(Cn2cc(Cl)cn2)cc1)C(F)(F)F [compound 180] | 0 | 0 |  |
| CCOC(=COc1ccc(Cn2ccc(C(F)(F)F)n2)cc1)C(F)(F)F [compound 181] | 0 | 0 |  |
| CCO/C(=C\Oc1ccc(Cn2cc(C(F)(F)F)cn2)cc1)C(F)(F)F [compound 182] | 0 | 0 |  |
| CCO/C(=C\Oc1ccc(CN2C(=O)c3ccccc3C2=O)cc1)C(F)(F)F [compound 184] | 0 | 0 |  |
| CCOC(=O)c1cnn(Cc2ccc(OCC3(C(F)(F)F)OC(=O)C(C)O3)cc2)c1 (centres unmarked) [compound 187] | 74 | 93 |  |
| C=CCOC(=O)c1cnn(Cc2ccc(OCC3(C(F)(F)F)OCCO3)cc2)c1 [compound 188] | 0 | 100 |  |
| COC(=O)c1ccc(OCC2(C(F)(F)F)OCCO2)cc1 [compound 189] | 0 | 0 |  |
| FC(F)(F)C1(COc2ccc(-c3ccccc3)cc2)OCCO1 [compound 190] | 0 | 0 |  |
| FC(F)(F)C1(COc2ccc(Oc3ccccc3)cc2)OCCO1 [compound 191] | 0 | 0 |  |
| FC(F)(F)C1(COc2ccc(Cc3ccccc3)cc2)OCCO1 [compound 192] | 0 | 0 |  |
| CCO/C(=C\Oc1ccc(COC(N)=O)cc1)C(F)(F)F [compound 193] | 86 | 0 |  |

| Structure (SMILES) | Test B disease control rating [1, 3] [%] | Test A disease control rating [2, 4] [%] | other results |
| --- | --- | --- | --- |
| CCO/C(=C\Oc1ccc(CO)cc1)C(F)(F)F [compound 195] | 0 | 0 |  |
| CCNC(=O)OCc1ccc(O/C=C(\OCC)C(F)(F)F)cc1 [compound 196] | 74 | 0 |  |
| O=C(NCC(F)(F)F)c1cnn(Cc2ccc(OCC3(C(F)(F)F)OCCO3)cc2)c1 [compound 197] | 0 | 0 |  |
| CN(C)C(=O)c1cnn(Cc2ccc(OCC3(C(F)(F)F)OCCO3)cc2)c1 [compound 198] | 0 | 0 |  |
| O=C(OCc1ccccn1)c1cnn(Cc2ccc(OCC3(C(F)(F)F)OCCO3)cc2)c1 [compound 199] | 0 | 100 |  |
| O=C(OCc1cccnc1)c1cnn(Cc2ccc(OCC3(C(F)(F)F)OCCO3)cc2)c1 [compound 200] | 0 | 100 |  |
| O=C(OCc1ccncc1)c1cnn(Cc2ccc(OCC3(C(F)(F)F)OCCO3)cc2)c1 [compound 201] | 0 | 100 |  |
| O=C(OCC(=O)C1CCCCC1)c1cnn(Cc2ccc(OCC3(C(F)(F)F)OCCO3)cc2)c1 [compound 202] | 0 | 100 |  |
| COC(=O)COC(=O)c1cnn(Cc2ccc(OCC3(C(F)(F)F)OCCO3)cc2)c1 [compound 203] | 0 | 50 |  |
| O=C(OCC1OCCO1)c1cnn(Cc2ccc(OCC3(C(F)(F)F)OCCO3)cc2)c1 [compound 204] | 0 | 100 |  |
| CCO/C(=C\Oc1ccc(Cn2cc(C#N)cn2)cc1)C(F)(F)F [compound 205] | 0 | 0 |  |
| O=S(=O)(NCc1ccc(OCC2(C(F)(F)F)OCCO2)cc1)C(F)(F)F [compound 207] | 0 | 0 |  |
| N#Cc1cnn(Cc2ccc(OCC3(C(F)(F)F)OCCO3)cc2)c1 [compound 209] | 0 | 89 |  |
| CCO/C(=C\Oc1ccc(CNC(=O)C(C)C)cc1)C(F)(F)F [compound 210] | 0 | 0 |  |
| O=C(CC(F)(F)F)NCc1ccc(OCC2(C(F)(F)F)OCCO2)cc1 [compound 212] | 0 | 44 |  |
| COC(C)C(=O)NCc1ccc(OCC2(C(F)(F)F)OCCO2)cc1 (centres unmarked) [compound 214] | 0 | 0 |  |
| CCO/C(=C\Oc1ccc(CN2CCCC2=O)cc1)C(F)(F)F [compound 224] | 0 | 0 |  |
| CCO/C(=C\Oc1ccc(CN2CCC(C)(C)C2=O)cc1)C(F)(F)F [compound 225] | 0 | 0 |  |
| CCO/C(=C\Oc1ccc(Cn2c(=O)oc3ccccc32)cc1)C(F)(F)F [compound 226] | 0 | 0 |  |
| CCOC(=O)c1cnn(Cc2ccc(OCC(O)(O)C(F)(F)F)cc2)c1 [compound 227] | 55 | 99 |  |

| Structure (SMILES) | Test B disease control rating [1, 3] [%] | Test A disease control rating [2, 4] [%] | other results |
| --- | --- | --- | --- |
| C=C(C)COC(=O)c1cnn(Cc2ccc(OCC3(C(F)(F)F)OCCO3)cc2)c1 [compound 228] | 0 | 100 |  |
| CCO/C(=C\Oc1ccc(C(=O)OC)cc1)C(F)(F)F [compound 230] | 0 | 0 |  |
| CCOC(=O)c1ccn(Cc2ccc(OCC3(C(F)(F)F)OCCO3)cc2)n1 [compound 232] | 0 | 98 |  |
| CCOC(=O)c1ccn(Cc2ccc(OCC(O)(O)C(F)(F)F)cc2)n1 [compound 233] |  |  | Test B disease control rating [1, 5]: 96%; Test A disease control rating [2, 6]: 100% |
| CCOC(=O)c1ccnn1Cc1ccc(OCC(O)(O)C(F)(F)F)cc1 [compound 234] |  |  | Test B disease control rating [1, 5]: 92%; Test A disease control rating [2, 6]: 100% |
| CON(Cc1ccc(OCC2(C(F)(F)F)OCCO2)cc1)C(=O)C(C)C [compound 235] | 0 | 97 |  |
| CON(Cc1ccc(OCC2(C(F)(F)F)OCCO2)cc1)C(=O)C1CC1 [compound 236] | 0 | 75 |  |
| CCCC(=O)N(Cc1ccc(OCC2(C(F)(F)F)OCCO2)cc1)OC [compound 237] | 0 | 97 |  |
| CON(Cc1ccc(OCC2(C(F)(F)F)OCCO2)cc1)C(=O)OC(C)(C)C [compound 238] | 0 | 73 |  |
| N#CCc1ccc(OCC2(C(F)(F)F)OCCO2)cc1 [compound 239] | 0 | 0 |  |
| CCOCc1cnn(Cc2ccc(OCC3(C(F)(F)F)OCCO3)cc2)c1 [compound 240] | 0 | 99 |  |
| CCOC(=O)c1ccnn1Cc1ccc(OC=C(OCC)C(F)(F)F)cc1 [compound 241] | 0 | 0 |  |
| O=C(OCC1CCC1)c1cnn(Cc2ccc(OCC3(C(F)(F)F)OCCO3)cc2)c1 [compound 249] | 0 | 100 |  |
| CCOC(=COc1ccc(Cn2nccc2C(=O)OC)cc1)C(F)(F)F [compound 250] | 0 | 0 |  |
| CCOC(=COc1ccc(Cn2ccc(C(=O)OC)n2)cc1)C(F)(F)F [compound 251] | 9 | 100 |  |
| CCOC(=COc1ccc(Cn2nccc2C(=O)OC(C)(C)C)cc1)C(F)(F)F [compound 252] | 0 | 0 |  |
| CCOC(=COc1ccc(Cn2ccc(C(=O)OC(C)(C)C)n2)cc1)C(F)(F)F [compound 253] | 0 | 0 |  |
| CCO/C(=C\Oc1ccc(Cn2ncnc2SC)cc1)C(F)(F)F [compound 260] |  |  | Test B disease control rating [1, 7]: 0%; Test A disease control rating [2, 7]: 0% |
